{
  "source": "paper PMC6391970",
  "about": "“Design, Synthesis and Characterization of Covalent KDM5 Inhibitors” (Angewandte Chemie (International Ed. in English), 2018)",
  "key": {"KDM3A": {"biological_target": "T1, KDM3A (Homo sapiens, UniProt Q9Y4C1)", "T1 sequence (Q9Y4C1 1-1321)": "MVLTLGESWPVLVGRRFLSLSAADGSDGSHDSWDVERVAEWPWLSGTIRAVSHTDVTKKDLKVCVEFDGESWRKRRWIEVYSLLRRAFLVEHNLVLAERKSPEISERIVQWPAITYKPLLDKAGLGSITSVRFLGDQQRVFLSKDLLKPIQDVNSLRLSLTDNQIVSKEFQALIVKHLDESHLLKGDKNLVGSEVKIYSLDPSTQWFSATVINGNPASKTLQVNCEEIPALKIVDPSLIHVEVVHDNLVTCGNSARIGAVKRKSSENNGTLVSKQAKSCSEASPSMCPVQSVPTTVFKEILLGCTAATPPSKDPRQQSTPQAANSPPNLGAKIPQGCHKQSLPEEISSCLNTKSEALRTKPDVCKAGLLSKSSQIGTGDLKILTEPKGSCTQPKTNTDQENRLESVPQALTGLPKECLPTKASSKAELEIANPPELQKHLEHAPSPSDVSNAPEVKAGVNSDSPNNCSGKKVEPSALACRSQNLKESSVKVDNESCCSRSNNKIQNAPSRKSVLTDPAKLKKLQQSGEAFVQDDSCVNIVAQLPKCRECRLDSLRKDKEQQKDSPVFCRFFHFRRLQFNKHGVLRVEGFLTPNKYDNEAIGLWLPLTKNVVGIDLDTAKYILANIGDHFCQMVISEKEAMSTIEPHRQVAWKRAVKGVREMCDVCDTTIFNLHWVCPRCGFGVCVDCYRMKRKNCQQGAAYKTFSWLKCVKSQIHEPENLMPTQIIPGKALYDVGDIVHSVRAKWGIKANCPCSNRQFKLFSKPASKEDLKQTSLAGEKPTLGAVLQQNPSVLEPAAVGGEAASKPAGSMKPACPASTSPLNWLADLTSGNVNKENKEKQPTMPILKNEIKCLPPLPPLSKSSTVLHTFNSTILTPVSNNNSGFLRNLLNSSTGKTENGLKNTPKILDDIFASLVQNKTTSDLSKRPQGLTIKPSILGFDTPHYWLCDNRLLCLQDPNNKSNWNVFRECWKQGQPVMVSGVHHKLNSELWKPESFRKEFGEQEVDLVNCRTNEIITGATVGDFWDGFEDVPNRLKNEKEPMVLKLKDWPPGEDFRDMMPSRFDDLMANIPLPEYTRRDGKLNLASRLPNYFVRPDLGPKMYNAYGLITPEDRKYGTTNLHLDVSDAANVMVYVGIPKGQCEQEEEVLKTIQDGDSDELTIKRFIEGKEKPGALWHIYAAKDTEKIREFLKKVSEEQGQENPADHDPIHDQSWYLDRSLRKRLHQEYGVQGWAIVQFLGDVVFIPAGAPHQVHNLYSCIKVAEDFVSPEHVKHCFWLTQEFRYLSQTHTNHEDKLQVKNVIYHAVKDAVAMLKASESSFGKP", "assay": "KDM AlphaScreen selectivity panel, KDM3A", "format": "biochemical", "details": "for IC50: AlphaScreen after 120 min pre-incubation, read-out: KDM IC50 3A; for SI over KDM5B, 3A: KDM3A IC50/KDM5B IC50", "protocol": "(§1) A panel of JmjC KDMs was tested by AlphaScreen to determine the selectivity of the compounds (Table S2). […]\n(§2) KDM alpha screen selectivity\n(§3) Inhibition of histone demethylases was assessed using the histone demethylase AlphaScreen assay (Amplified Luminescence Proximity Homogenous Assay) as previously reported.[4] The basis of this assay for lysine demethylases have been widely described.[5] In brief, the assay was performed in 384-well plate format using white proxiplates (PerkinElmer), and transfer of titrations of compounds (100 nl) was performed using an ECHO 550 acoustic dispenser […]\n(§4) Tween- 20) containing the appropriate demethylase enzyme (see Supplementary table 1 for final concentrations) was transferred to each well of a 384-well proxiplate with a Multidrop™ Combi Reagent Dispenser, and the enzymes allowed to pre-incubate for 120 minutes with compound (final concentration of DMSO was 1%). After that time, the enzyme reaction was initiated by addition of 5 µl of a substrate mix consisting of Ketoglutarate (2-OG), Ferrous Ammonium Sulphate (FAS), L-Ascorbic Acid (LAA) and biotinylated peptide substrate (see Supporting table X for final assay concentrations) and the reaction incubated for the indicated time at room temperature. Reaction was stopped by the addition of 5 μl of assay buffer containing EDTA (7.5 mM) and NaCl (400 mM). Streptavidin Donor beads (0.08 mg/ml) and Protein-A conjugated acceptor beads (0.08 mg/ml) (AlphaScreen General IgG detection kit was from Perkin Elmer) were pre-incubated for 1 hour with an antibody to the product methyl mark (Supplementary Table 1) and the presence of biotin-H3-product was detected by addition of 5 µl of the pre-incubated AlphaScreen beads (final concentrations of 0.02 mg/ml with respect to acceptor and donor beads). Detection was allowed to proceed for 2 hour at room temperature and the assay plates read in a BMG Labtech Pherastar FS plate reader (excitation, 680 nm; emission, 570 […]\nIC50(t) = Ki (1 + K ) . ( η . k .t − 1) (1) […]\nTable S4. AlphaScreen assay conditions for the KDM selectivity panel"}, "KDM6B": {"biological_target": "KDM6B (Homo sapiens, UniProt O15054)", "sequence (O15054 whole entry)": "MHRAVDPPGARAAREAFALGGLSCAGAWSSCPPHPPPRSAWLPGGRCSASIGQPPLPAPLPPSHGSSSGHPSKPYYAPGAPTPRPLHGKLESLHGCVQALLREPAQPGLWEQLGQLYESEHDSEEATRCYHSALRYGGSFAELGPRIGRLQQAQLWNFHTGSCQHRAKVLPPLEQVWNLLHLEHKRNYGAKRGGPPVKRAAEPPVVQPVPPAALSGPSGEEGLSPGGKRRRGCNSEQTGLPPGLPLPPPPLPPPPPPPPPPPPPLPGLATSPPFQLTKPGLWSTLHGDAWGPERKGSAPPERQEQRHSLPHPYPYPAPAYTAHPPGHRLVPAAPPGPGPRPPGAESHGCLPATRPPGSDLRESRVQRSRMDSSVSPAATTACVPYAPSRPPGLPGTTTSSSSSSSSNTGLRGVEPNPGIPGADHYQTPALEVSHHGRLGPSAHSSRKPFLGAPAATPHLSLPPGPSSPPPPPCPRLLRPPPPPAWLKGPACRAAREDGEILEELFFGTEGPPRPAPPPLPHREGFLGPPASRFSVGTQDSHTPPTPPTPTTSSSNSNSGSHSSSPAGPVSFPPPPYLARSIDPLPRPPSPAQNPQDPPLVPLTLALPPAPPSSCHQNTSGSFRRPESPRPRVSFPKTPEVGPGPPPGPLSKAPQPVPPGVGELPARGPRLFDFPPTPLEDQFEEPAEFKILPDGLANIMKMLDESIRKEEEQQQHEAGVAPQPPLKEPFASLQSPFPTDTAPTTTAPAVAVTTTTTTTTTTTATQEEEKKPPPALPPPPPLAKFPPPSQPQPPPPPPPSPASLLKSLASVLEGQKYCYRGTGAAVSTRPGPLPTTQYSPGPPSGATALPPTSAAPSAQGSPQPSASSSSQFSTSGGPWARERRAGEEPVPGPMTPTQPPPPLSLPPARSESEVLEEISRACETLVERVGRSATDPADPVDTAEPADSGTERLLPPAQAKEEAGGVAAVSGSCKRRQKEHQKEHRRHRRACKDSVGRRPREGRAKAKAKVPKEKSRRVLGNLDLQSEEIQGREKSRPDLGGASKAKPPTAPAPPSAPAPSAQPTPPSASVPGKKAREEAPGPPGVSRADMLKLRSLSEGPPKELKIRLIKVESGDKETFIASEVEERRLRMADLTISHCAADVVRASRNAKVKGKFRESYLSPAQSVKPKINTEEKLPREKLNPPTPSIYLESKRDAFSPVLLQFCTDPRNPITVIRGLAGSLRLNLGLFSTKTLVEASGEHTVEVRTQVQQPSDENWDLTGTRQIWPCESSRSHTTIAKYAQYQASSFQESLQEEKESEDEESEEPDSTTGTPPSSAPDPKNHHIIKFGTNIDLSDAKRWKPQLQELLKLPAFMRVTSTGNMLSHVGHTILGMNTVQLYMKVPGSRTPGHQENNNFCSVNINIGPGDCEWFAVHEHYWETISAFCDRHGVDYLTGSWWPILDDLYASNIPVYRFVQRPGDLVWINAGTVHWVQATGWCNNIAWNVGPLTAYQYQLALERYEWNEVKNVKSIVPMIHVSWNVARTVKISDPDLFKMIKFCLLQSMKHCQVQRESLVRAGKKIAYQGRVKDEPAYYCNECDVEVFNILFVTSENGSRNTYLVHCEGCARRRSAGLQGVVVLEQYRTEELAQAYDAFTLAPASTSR", "assay": "KDM AlphaScreen selectivity panel, KDM6B", "format": "biochemical", "details": "for IC50: AlphaScreen after 120 min pre-incubation, read-out: KDM IC50 6B; for SI over KDM5B, 6B: KDM6B IC50/KDM5B IC50", "protocol": "as §1, §2, §3, §4"}},
  "data": [
    {"smiles": "C=CC(=O)Nc1cccc(CN(C)CCc2cnn(-c3nccc4c(=O)[nH]cnc34)c2)c1", "note": "[Compound 4]", "values": [
      {"measurement": "IC50", "setting": "KDM3A", "result": "8.4 ± 4.1", "unit": "µM"},
      {"measurement": "IC50", "setting": "KDM6B", "result": "> 33", "unit": "µM"},
      {"measurement": "SI over KDM5B, 6B", "setting": "KDM6B", "result": "> 1650"}
    ]},
    {"smiles": "CN(CCc1cnn(-c2nccc3c(=O)[nH]cnc23)c1)Cc1cccc(NC(=O)CCl)c1", "note": "[Compound 5]", "values": [
      {"measurement": "IC50", "setting": "KDM3A", "result": "2.6 ± 0.1", "unit": "µM"},
      {"measurement": "SI over KDM5B, 3A", "setting": "KDM3A", "result": 260},
      {"measurement": "IC50", "setting": "KDM6B", "result": "0.67 ± 0.01", "unit": "µM"},
      {"measurement": "SI over KDM5B, 6B", "setting": "KDM6B", "result": 67}
    ]},
    {"smiles": "CN(C)C/C=C/C(=O)Nc1cccc(CN(C)CCc2cnn(-c3nccc4c(=O)[nH]cnc34)c2)c1", "note": "[Compound 6]", "values": [
      {"measurement": "IC50", "setting": "KDM6B", "result": "> 100", "unit": "µM"}
    ]},
    {"smiles": "CC(C)c1c(-c2cnn(CCNC(=O)CCl)c2)[nH]c2c(C#N)cnn2c1=O", "note": "[Compound 7]", "values": [
      {"measurement": "IC50", "setting": "KDM3A", "result": "5.7 ± 0.4", "unit": "µM"},
      {"measurement": "SI over KDM5B, 3A", "setting": "KDM3A", "result": 806},
      {"measurement": "IC50", "setting": "KDM6B", "result": "> 100", "unit": "µM"},
      {"measurement": "SI over KDM5B, 6B", "setting": "KDM6B", "result": "> 14285"}
    ]},
    {"smiles": "C=CC(=O)NCCOc1ccc(-c2[nH]c3c(C#N)cnn3c(=O)c2C(C)C)cc1", "note": "[Compound 9]", "values": [
      {"measurement": "IC50", "setting": "KDM3A", "result": "17 ± 0.4", "unit": "µM"},
      {"measurement": "SI over KDM5B, 3A", "setting": "KDM3A", "result": 264},
      {"measurement": "IC50", "setting": "KDM6B", "result": "> 100", "unit": "µM"},
      {"measurement": "SI over KDM5B, 6B", "setting": "KDM6B", "result": "> 1539"}
    ]},
    {"smiles": "C=CC(=O)N1CCC(n2cc(-c3[nH]c4c(C#N)cnn4c(=O)c3C(C)C)cn2)CC1", "note": "[Compound 10]", "values": [
      {"measurement": "IC50", "setting": "KDM3A", "result": "9.4 ± 0.4", "unit": "µM"},
      {"measurement": "SI over KDM5B, 3A", "setting": "KDM3A", "result": 547},
      {"measurement": "IC50", "setting": "KDM6B", "result": "> 100", "unit": "µM"}
    ]},
    {"smiles": "CC(C)c1c(-c2cnn(C3CCN(C(=O)CCl)CC3)c2)[nH]c2c(C#N)cnn2c1=O", "note": "[Compound 11]", "values": [
      {"measurement": "IC50", "setting": "KDM3A", "result": "9.1 ± 0.8", "unit": "µM"},
      {"measurement": "SI over KDM5B, 3A", "setting": "KDM3A", "result": 1007},
      {"measurement": "IC50", "setting": "KDM6B", "result": "> 100", "unit": "µM"}
    ]}
  ]
}
